Source: patent publication US9926281B2 (priority 2014, dated 2018)

Key:
human TACE = human TACE (Homo sapiens (Human), UniProt P78536); conditions: read-out: TACE potency IC50
human ADAMTS-5 = human ADAMTS-5 (Homo sapiens (Human), UniProt Q9UNA0); conditions: read-out: hADAMTS-5 potency IC50
Chain of human ADAMTS-5 (Q9UNA0 262-930): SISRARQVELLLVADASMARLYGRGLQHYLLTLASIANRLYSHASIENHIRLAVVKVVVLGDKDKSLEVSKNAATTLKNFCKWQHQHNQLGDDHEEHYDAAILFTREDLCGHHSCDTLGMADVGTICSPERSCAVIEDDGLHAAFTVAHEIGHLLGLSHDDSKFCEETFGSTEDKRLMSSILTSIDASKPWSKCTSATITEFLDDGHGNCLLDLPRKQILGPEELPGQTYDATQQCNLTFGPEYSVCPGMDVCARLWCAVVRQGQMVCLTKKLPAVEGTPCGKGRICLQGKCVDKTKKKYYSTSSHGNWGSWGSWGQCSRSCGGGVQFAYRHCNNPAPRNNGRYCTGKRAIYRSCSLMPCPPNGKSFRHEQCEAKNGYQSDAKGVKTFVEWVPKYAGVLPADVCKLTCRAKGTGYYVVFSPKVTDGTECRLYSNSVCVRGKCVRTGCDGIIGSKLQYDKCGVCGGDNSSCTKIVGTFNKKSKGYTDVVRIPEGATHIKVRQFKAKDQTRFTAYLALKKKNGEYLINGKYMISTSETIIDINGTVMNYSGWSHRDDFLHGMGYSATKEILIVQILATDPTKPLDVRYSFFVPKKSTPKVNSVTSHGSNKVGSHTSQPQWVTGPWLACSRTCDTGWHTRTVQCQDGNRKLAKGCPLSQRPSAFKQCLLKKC
Description: Finally, the fluorescence is read on the Envision (Perkin Elmer) after an incubation of 90 min at 37° C.

Chain of human TACE (P78536 whole entry, looked up, change not shown): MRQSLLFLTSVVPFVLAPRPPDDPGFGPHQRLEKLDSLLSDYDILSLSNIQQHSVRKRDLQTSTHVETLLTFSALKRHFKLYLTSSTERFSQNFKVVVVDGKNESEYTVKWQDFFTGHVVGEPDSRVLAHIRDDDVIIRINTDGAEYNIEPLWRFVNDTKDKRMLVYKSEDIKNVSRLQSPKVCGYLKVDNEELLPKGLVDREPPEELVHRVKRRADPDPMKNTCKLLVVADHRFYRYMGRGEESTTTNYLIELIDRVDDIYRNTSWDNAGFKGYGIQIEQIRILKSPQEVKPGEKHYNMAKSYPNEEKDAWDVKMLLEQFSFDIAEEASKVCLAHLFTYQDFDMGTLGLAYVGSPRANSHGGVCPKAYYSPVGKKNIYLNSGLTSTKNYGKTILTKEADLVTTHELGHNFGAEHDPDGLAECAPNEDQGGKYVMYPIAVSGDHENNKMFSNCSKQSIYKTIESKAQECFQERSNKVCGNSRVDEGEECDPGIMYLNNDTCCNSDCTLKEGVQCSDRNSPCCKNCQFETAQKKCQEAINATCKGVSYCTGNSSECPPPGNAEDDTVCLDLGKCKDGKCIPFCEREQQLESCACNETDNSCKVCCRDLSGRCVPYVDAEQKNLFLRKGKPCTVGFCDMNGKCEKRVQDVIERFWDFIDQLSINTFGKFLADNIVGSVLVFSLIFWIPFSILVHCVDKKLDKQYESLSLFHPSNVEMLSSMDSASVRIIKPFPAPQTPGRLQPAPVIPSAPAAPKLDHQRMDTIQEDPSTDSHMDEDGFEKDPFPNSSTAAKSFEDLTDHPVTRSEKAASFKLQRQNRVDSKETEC

CC(CC1(CCN)NC(=O)NC1=O)C(=O)N1CCN(c2ccc(F)c(F)c2)CC1 (stereo not shown) [Cpd 241, 5-(2-aminoethyl)-5-[3-[4-(3,4-difluorophenyl)piperazin-1-yl]-2-methyl-3-oxo-propyl]imidazolidine-2,4-dione]
IC50 (human TACE): > 12000 nM
IC50 (human ADAMTS-5): 232 nM

C[C@H]1CN(C(=O)C(CO)CC2(C)NC(=O)NC2=O)CCN1c1cccc(F)c1 (stereo partly drawn) [Cpd 268, 5-[3-[(3S)-4-(3-fluorophenyl)-3-methyl-piperazin-1-yl]-2-(hydroxymethyl)-3-oxo-propyl]-5-methyl-imidazolidine-2,4-dione]
IC50 (human TACE): > 4000 nM
IC50 (human ADAMTS-5): 62 nM

C[C@H]1CN(C(=O)CCC2(C3CC3)NC(=O)NC2=O)CCN1c1cccnn1 (stereo partly drawn) [Cpd 302, 5-cyclopropyl-5-[3-(3S)-3-methyl-4-pyridazin-3-yl-piperazin-1-yl-3-oxo-propyl]imidazolidine-2,4-dione]
IC50 (human TACE): > 20000 nM
IC50 (human ADAMTS-5): 776 nM

C[C@H]1CN(C(=O)CCC2(C3CC3)NC(=O)NC2=O)CCN1c1cccc(-c2cnccn2)c1 (stereo partly drawn) [Cpd 372, S-Cyclopropyl-5-{3-[(S)-3-methyl-4-(3-pyrazin-2-yl-phenyl)-piperazin-1-yl]-3-oxo-propyl}-imidazolidine-2,4-dione]
IC50 (human TACE): > 20000 nM
IC50 (human ADAMTS-5): 2390 nM

C[C@@H](C[C@@]1(C2CC2)NC(=O)NC1=O)C(=O)N1CCN(c2cc(F)cc(-c3cn[nH]c3)c2)[C@@H](C)C1 [Cpd 379, 5-cyclopropyl-5-[3-[(3S)-4-[3-fluoro-5-(1H-pyrazol-4-yl)phenyl]-3-methyl-piperazin-1-yl]-2-methyl-3-oxo-propyl]imidazolidine-2,4-dione]
IC50 (human TACE): 1490 nM
IC50 (human ADAMTS-5): 18 nM

CC(CC1(C2CN(C)C2)NC(=O)NC1=O)C(=O)N1CCN(c2ccc(F)c(F)c2)[C@@H](C)C1 (stereo partly drawn) [Cpd 399, 5-[3-[(3S)-4-(3,4-difluorophenyl)-3-methy-piperazin-1-yl]-2-methyl-3-oxo-propy]-5-(1-methylazetidin-3-yl)imidazolidine-2,4-dione]
IC50 (human ADAMTS-5): 163 nM

Cc1cc(N2CCN(C(=O)CCC3(CC(=O)NCCO)NC(=O)NC3=O)CC2)ccc1Cl (stereo not shown) [Cpd 402, 2-[4-[3-[4-(4-chloro-3-methyl-phenyl)piperazin-1-yl]-3-oxo-propyl]-2,5-dioxo-imidazolidin-4-yl]-N-(2-hydroxyethyl)acetamide]
IC50 (human ADAMTS-5): 732 nM

CN(C)CCC1(CCC(=O)N2CCN(c3cccc(Cl)c3)CC2)NC(=O)NC1=O (stereo not shown) [compound 44, 5-[3-[4-(3-chlorophenyl)piperazin-1-yl]-3-oxo-propyl]-5-(2-dimethylaminoethyl)imidazolidine-2,4-dione]
IC50 (human TACE): > 20000 nM

CNc1ccccc1N1CCN(C(=O)CCC2(C3CC3)NC(=O)NC2=O)CC1 (stereo not shown) [compound 185, 5-cyclopropyl-5-[3-[4-[2-(methylamino)phenyl]piperazin-1-yl]-3-oxo-propyl]imidazolidine-2,4-dione]
IC50 (human ADAMTS-5): > 4000 nM

Cc1cc(Cl)c(F)cc1N1CCN(C(=O)CCC2(C)NC(=O)NC2=O)C[C@@H]1C (stereo partly drawn) [compound 202, 5-[3-[(3S)-4-(4-chloro-5-fluoro-2-methyl-phenyl)-3-methyl-piperazin-1-yl]-3-oxo-propyl]-5-methyl-imidazolidine-2,4-dione]
IC50 (human ADAMTS-5): 724 nM

COCCOCC1(CC(C)C(=O)N2CCN(c3cc(Cl)cc(Cl)c3)[C@@H](C)C2)NC(=O)NC1=O (stereo partly drawn) [compound 221, 5-[3-[(3S)-4-(3,5-dichlorophenyl)-3-methyl-piperazin-1-yl]-2-methyl-3-oxo-propyl]-5-(2-methoxyethoxymethyl)imidazolidine-2,4-dione]
IC50 (human TACE): 3200 nM

Cc1cc(CC(CC2(C)NC(=O)NC2=O)C(=O)N2CCN(c3cc(Cl)cc(Cl)c3)CC2)n(C)n1 (stereo not shown) [compound 238, 5-[3-[4-(3,5-dichlorophenyl)piperazin-1-yl]-2-[(2,5-dimethylpyrazol-3-yl)methyl]-3-oxo-propyl]-5-methyl-imidazolidine-2,4-dione]
IC50 (human TACE): 3160 nM
IC50 (human ADAMTS-5): 141 nM

CC(CC1(C2CN(C(=O)OC(C)(C)C)C2)NC(=O)NC1=O)C(=O)N1CCN(c2ccc(F)c(F)c2)[C@@H](C)C1 (stereo partly drawn) [compound 239, tert-butyl 3-[4-[3-[(3S)-4-(3,4-difluorophenyl)-3-methyl-piperazin-1-yl]-2-methyl-3-oxo-propyl]-2,5-dioxo-imidazolidin-4-yl]azetidine-1-carboxylate]
IC50 (human TACE): > 4000 nM
IC50 (human ADAMTS-5): 46 nM

CC(CC1(C2CNC2)NC(=O)NC1=O)C(=O)N1CCN(c2ccc(F)c(F)c2)CC1 (stereo not shown) [compound 240, 5-(azetidin-3-yl)-5-[3-[4-(3,4-difluorophenyl)piperazin-1-yl]-2-methyl-3-oxo-propyl]imidazolidine-2,4-dione]
IC50 (human TACE): > 20000 nM
IC50 (human ADAMTS-5): 194 nM

CC(CC1(c2ccccn2)NC(=O)NC1=O)C(=O)N1CCN(c2ccc(F)c(Cl)c2)[C@@H](C)C1 (stereo partly drawn) [compound 245, 5-[3-[(3S)-4-(3-chloro-4-fluoro-phenyl)-3-methyl-piperazin-1-yl]-2-methyl-3-oxo-propyl]-5-(2-pyridyl)imidazolidine-2,4-dione]
IC50 (human ADAMTS-5): 17 nM

Cc1c(Cl)cc(F)cc1N1CCN(C(=O)CCC2(C)NC(=O)NC2=O)CC1 (stereo not shown) [compound 293, 5-[3-[4-(3-chloro-5-fluoro-2-methyl-phenyl)piperazin-1-yl]-3-oxo-propyl]-5-methyl-imidazolidine-2,4-dione]
IC50 (human ADAMTS-5): 294 nM

C[C@H]1CN(C(=O)CCC2(C3CC3)NC(=O)NC2=O)CCN1c1ccc2ncsc2c1 (stereo partly drawn) [compound 305, 5-[3-[(3S)-4-(1,3-benzothiazol-6-yl)-3-methyl-piperazin-1-yl]-3-oxo-propyl]-5-cyclopropyl-imidazolidine-2,4-dione]
IC50 (human TACE): > 20000 nM

Cc1cc(N2CCN(C(=O)CC[C@@]3(C)NC(=O)NC3=O)CC2)cc(C)c1Cl [compound 401, (5R)-5-[3-[4-(4-chloro-3,5-dimethyl-phenyl)piperazin-1-yl]-3-oxo-propyl]-5-methyl-imidazolidine-2,4-dione]
IC50 (human ADAMTS-5): 1120 nM

C[C@@H]1CN(C(=O)CC[C@@]2(C3CC3)NC(=O)NC2=O)CCN1c1cc(F)cc(F)c1 [compound 403, (5S)-5-cyclopropyl-5-[3-[(3R)-4-(3,5-difluorophenyl)-3-methyl-piperazin-1-yl]-3-oxo-propyl]imidazolidine-2,4-dione]
IC50 (human ADAMTS-5): 168 nM

COCCOCC1(CC(C)C(=O)N2CCN(c3cc(Cl)cc(Cl)c3)[C@@H](C)C2)NC(=O)NC1=O (stereo partly drawn) [compound 426, 5-(3-((S)-4-(3,5-dichlorophenyl)-3-methylpiperazin-1-yl)-2-methyl-3-oxopropyl)-5-((2-methoxyethoxy)methyl)imidazolidine-2,4-dione]
IC50 (human ADAMTS-5): 110 nM

CC(CC1(c2ccccn2)NC(=O)NC1=O)C(=O)N1CCN(c2ccc(F)c(Cl)c2)[C@@H](C)C1 (stereo partly drawn) [compound 437, 5-(3-((S)-4-(3-chloro-4-fluorophenyl)-3-methylpiperazin-1-yl)-2-methyl-3-oxopropyl)-5-(pyridin-2-yl)imidazolidine-2,4-dione]
IC50 (human ADAMTS-5): 17 nM

Cc1cccc(C2(CCC(=O)N3CCN(c4ccc(Cl)c(Cl)c4)[C@@H](C)C3)NC(=O)NC2=O)n1 (stereo partly drawn) [compound 452, 5-[3-[(3S)-4-(3,4-dichlorophenyl)-3-methyl-piperazin-1-yl]-3-oxo-propyl]-5-(6-methyl-2-pyridyl)imidazolidine-2,4-dione]
IC50 (human ADAMTS-5): 23 nM

C[C@H]1CN(C(=O)CCC2(c3ccccn3)NC(=O)NC2=O)CCN1c1ccc(F)c(Cl)c1 (stereo partly drawn) [compound 457, 5-[3-[(3S)-4-(3-chloro-4-fluoro-phenyl)-3-methyl-piperazin-1-yl]-3-oxo-propyl]-5-(2-pyridyl)imidazolidine-2,4-dione]
IC50 (human ADAMTS-5): 47 nM
